Reference: patent US20040157240A1, “Diagnostic assay and related products” (The Brigham & Women's Hospital, Inc., priority 2002, published 2004)

Columns and labels:
[1] = CAMP (Childhood Asthma Management Program): clinical trial of inhaled budesonide vs. nedocromil vs. placebo, change in FEV1; assay type: in vivo, human
Description: The Childhood Asthma Management Program (CAMP) was a randomized, double-masked, long term clinical trial testing the safety and efficacy of inhaled budesonide vs. nedocromil vs. placebo (27). The mean duration of follow-up was 4 years (28). 311 children (males and females for a variety of race and age groups) were randomized to the steroid group, with a mean improvement of 6.8% in their FEV1 at one year. Of these, 65% were Caucasian. These formed the basis for our replication sample.
CAMP is a multicenter, randomized, double-blinded clinical trial testing the safety and efficacy of inhaled budesonide vs. nedocromil vs. placebo over a mean of 4.3 years. Trial design and methodology have been published (27, 28). The replication sample subjects were the Caucasian CAMP children randomized to the steroid group, evaluated at their 2 month follow-up visit.
(§1) The primary outcome measure of the association analyses was percent change in FEV1 over time in response to inhaled steroids, defined as the FEV1 difference from baseline to eight weeks for the Adult Study and CAMP, and to six weeks in ACRN, divided by the baseline value.

[2] = Adult Study (Forest study): 8-week clinical trial of inhaled flunisolide vs. standard inhaled corticosteroid therapy, change in FEV1; assay type: in vivo, human; details: on inhaled corticosteroids, evaluated at 8 weeks; mean ± standard deviation; N 470
Description: The Forest study (also known as the Adult Study) was an 8 week clinical trial used to compare the effect of once daily high dose inhaled flunisolide vs. “standard inhaled corticosteroid therapy” (performed by Forest Pharmaceuticals). […] Of these participants, 7% were African American, 3% were Hispanic and 2% were other. As 88% of these participants were Caucasian, analyses focus on this group. Additionally, females accounted for 58.5% of the participants.
The Adult Study was a multicenter 8-week randomized clinical trial comparing the effect of once-daily high-dose inhaled flunisolide vs. standard inhaled corticosteroid therapy. Inclusion criteria were a history of asthma, >12% improvement in FEV1 with albuterol and using inhaled steroids at randomization. Exclusion criteria were non-asthma pulmonary disease, smoking (≧10 pack-years) and recent asthma exacerbations requiring systemic steroids. Subjects were phoned weekly and had spirometry at 4 and 8 weeks.

[3] = ACRN (SOCS/SLIC) 6-week run-in period on inhaled triamcinolone, change in FEV1; assay type: in vivo, human; details: on inhaled corticosteroids, evaluated at 6 weeks; mean ± standard deviation; N 336
Description: Two completed trials conducted by the ACRN (Asthma Clinical Research Network), the salmeterol or corticosteroids (SOCS) (54) and salmeterol±inhaled corticosteroids (SLIC)
Details regarding the entry criteria, run-in period and randomization have been published with the primary trial results (54, 55). Of the 339 subjects eligible for randomization, 336 had DNA available; 66.7% of these were Caucasian, forming the basis of the second replication sample.
as §1

[4] = test system: β2-adrenergic receptor gene; details: cited from earlier work

For `CCCC1O[C@@H]2C[C@H]3[C@@H]4CCC5=CC(=O)C=C[C@]5(C)[C@H]4[C@@H](O)C[C@]3(C)[C@]2(C(=O)CO)O1` (stereo partly drawn) [Budesonide], the “mean improvement in FEV1” value ([1]; at one year, 311 children randomized to the steroid group) was 6.8% and the “Mean Change in FEV1” value ([1]; on inhaled corticosteroids, evaluated at 8 weeks, mean ± standard deviation, N 311) was 8.3 ± 14.1%.

In the case of `CC1(C)O[C@@H]2C[C@H]3[C@@H]4C[C@H](F)C5=CC(=O)C=C[C@]5(C)[C@H]4[C@@H](O)C[C@]3(C)[C@]2(C(=O)CO)O1` [Flunisolide], the “Mean Change in FEV1” value [2] was 7.0 ± 19.3%.

In the case of `C[C@]12C=CC(=O)C=C1CC[C@H]1[C@@H]3C[C@@H](O)[C@](O)(C(=O)CO)[C@@]3(C)C[C@H](O)[C@@]12F` [Triamcinolone], the “Mean Change in FEV1” value [3] was 6.7 ± 19.7%.

For `CC(C)(C)NCC(O)c1ccc(O)c(CO)c1` (stereo not drawn) [albuterol], the acute bronchodilator response ([4]; Arg/Arg children than Gly/Gly children) is listed as “more likely” and the “peak expiratory flow rates” value ([4]; regular utilization, Arg/Arg at position 16, compared to Arg/Arg receiving prn and Gly/Gly) is listed as “significantly decrease”.
